Starred links: 1 amine or outer side, 2 acyl side, 3 side chain; linkers in the order of their positions; H or OH if unused. Positions of bridges follow the written chain, without caps; N, C: chain ends. Non-standard residues stand in square brackets, D forms with d. Chains are numbered I, II in the order given. X1 = O=C1CC([*:2])C(=O)N1CC(=O)[*:1]; S5 = C=CCCC[C@](C)(N)C(=O)O; Nle = CCCC[C@H](N)C(=O)O; Aib = CC(C)(N)C(=O)O Bounds are passed on as bounds.

We go through eight substances from patent US20240016943A1, “SYNTHETIC DNA BINDING DOMAINS AND USES THEREOF” (The University of Chicago, priority 2020, published 2024).

The subject of data set [1] is duplex DNA probes E1, E2, and E3. The data set is described as follows: DNA probe specificity EMSA. The data set is classed as binding. The following applies: STR69 1 μM, STR640 125 nM; for DNA motif specificity: B-Z 100 nM, probes E1, E2, E3. As to the method: (§1) For direct DNA binding experiments, STRs were serial diluted (3-fold increments) at 2× concentration in 20 μL of 1× binding buffer (20 mM HEPES pH 8.0, 150 mM NaCl, 5% glycerol, 1 mM EDTA, 2 mM MgCl2, 0.5 mg/mL BSA, 1 mM DTT, 0.05% NP-40). 20 μL of 10 nM IRD700-labeled E-box probe in 1× binding buffer was added and samples were incubated for 30 min at RT followed by 15 min at 4° C. 3.5 μL of each reaction was loaded on a 6% acrylamide, 0.5× TBE gel equilibrated to 4° C. Higher affinity compounds (e.g., STR116 and STR118) were run at 10-fold lower concentration of compound and 0.5 nM final concentration of IRD-labeled oligo. Electrophoresis was carried out for 60 min at 110 V and 4° C. with 0.5× TBE+1 mM MgCl2 running buffer. Gels were pre-run at 110 V for 60 min prior to sample loading. For specificity experiments, 25 nM STR116, 10 nM STR118, or 5 nM MAX, and 5 nM labeled E-box probe were incubated with 0, 5, 25, 125, or 625 nM unlabeled competitor oligo for 30 min at RT in binding buffer. For protein competition experiments, 1 nM TRD-Ebox oligo was added to a mixture of STR (0-1 mM) and 30 nM protein (MAX or MYC:MAX) and incubated for 30 minutes at room temperature in binding buffer. For DNA probe specificity experiments B-Z (100 nM), STR69 (1 μM), and STR640 (125 nM) and MAX (10 nM) were incubated with 1 nM IRD-labeled oligo and 0.01 mg/ml salmon sperm DNA for 30 minutes at RT in binding buffer. All samples were equilibrated to 4° C. for 15 minutes before loading onto 6% gel. Gels were imaged using an Odyssey Li-COR. ImageJ was used to quantify band intensity and fraction bound DNA was calculated by dividing band intensity of bound DNA by the band intensity of the free DNA from a vehicle treated lane. A four-parameter dose-response curve fit to a plot of normalized fraction bound DNA vs. log B-Z concentration yields an IC50 which was reported as the apparent KD.

Another data set relates to E-box DNA. The data set is classed as binding. As for the experimental part: as §1, with “For DNA probe specificity experiments B-Z (100 nM), STR69 (1 μM), and STR640 (125 nM) and MAX (10 nM) were incubated with 1 nM IRD-labeled oligo and 0.01 mg/ml salmon sperm DNA for 30 minutes at RT in binding buffer. All samples were equilibrated to 4° C. for 15 minutes before loading onto 6% gel. Gels were imaged using an Odyssey Li-COR.” left out, “A four-parameter dose-response curve fit to a plot of normalized fraction bound DNA vs. log B-Z concentration yields an IC50 which was reported as the apparent KD.” left out

In the next data set the target is T1, Trypsin (Sus scrofa, UniProt P00761).
T1 construct: purchased Thermo-Pierce
T1 sequence (P00761 9-231): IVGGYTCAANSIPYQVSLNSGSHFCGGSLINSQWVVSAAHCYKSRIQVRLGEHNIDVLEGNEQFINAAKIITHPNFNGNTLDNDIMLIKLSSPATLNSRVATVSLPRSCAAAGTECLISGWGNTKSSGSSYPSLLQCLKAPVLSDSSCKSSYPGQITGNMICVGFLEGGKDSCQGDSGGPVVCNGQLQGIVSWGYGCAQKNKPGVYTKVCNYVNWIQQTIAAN
The data set can be described thus: In vitro trypsin stability assay. The data set is classed as in vitro ADME. As for the experimental part:
Each STR, 30 μM, was dissolved in 330 μL of 20 mM phosphate buffer pH 7.4 in a microcentrifuge tube and heated to 37° C. on a tabletop shaker (500 rpm). 30 μL of the reaction mixture was added to 60 uL of quenching solution (ACN+3% formic acid with 500 nM fmoc-lysine-OH internal standard) for 0 s timepoint sample. Thermo-Pierce MS-Grade Trypsin was added to a final concentration of 0.5 μg/ml and additional 30 μL aliquots were quenched at indicated timepoints. Quenched samples were cooled to 4° C. and centrifuged at 20,000×G for 3 min. […] Intact STR was calculated by normalizing the background subtracted integrated area under the curve for the EIC of (M+4H)/4, ±0.5 mass units, where M is mass and H is hydrogen ion, to the integrated area under the curve for the A280 peak of the internal standard. Fraction intact STR was calculated by dividing the intact STR by the normalized STR signal in the initial 0 s sample. GraphPad Prism was used to plot fraction intact STR vs time, and the proteolytic half-life was derived using a non-linear one-phase decay with the plateau constant set equal to zero.

The nature of data set [2]: Solubility in RPMI media+10% FBS. Type of data set: physicochemical. To be noted: RPMI media with 10% FBS, read-out: soluble concentration.
Data set [3] is described as follows: Circular dichroism spectroscopy. The data set is classed as physicochemical. The following applies: 25-85° C. As to the method: Lyophilized STR samples were resuspended in 20 mM phosphate buffer pH 7.4 and diluted to 10 μM. Circular dichroism spectra were obtained on a Jasco J-170 using a 0.1 cm quartz cuvette with the following settings: wavelength, 260-180 nm; data pitch, 1.0 nm; scan rate, 50 nm min^−1; accumulations, 3; temperature, 25-85° C. with 6° C. increments. Means-Movement smoothing at the lowest setting was applied to the recorded data.
For orientation: Circular dichroism is widely used to follow secondary structure.

A further data set deals with E-box probe. The data set can be described thus: Conditioned media binding assay (retained E-box binding by EMSA). The following applies: HeLa conditioned media, 37° C. Type of data set: in vitro ADME. As to the method: HeLa cells were grown to 90% confluency in a 6 cm plate and the media was collected. 10 μM STR was resuspended in 0.5 mL of the conditioned media and incubated with gentle shaking at 37° C. At 0, 24 and 48 hrs., treatment media (2 μL) was diluted into 48 μL of 1× EMSA binding buffer containing 5 nM E-box probe. DNA binding was measured using an electrophoretic mobility shift assay. Fraction bound to E-box probe was calculated by dividing the band intensity of bound DNA by the sum of the bound DNA+free DNA.
In general terms: In EMSA bound probe runs differently from free probe, usually more slowly.

The subject of data set [4] is E-box oligonucleotide probe. The data set can be described thus: DNA competition (specificity) EMSA with unlabeled competitor oligo. Type of data set: binding. To be noted: 25 nM STR116, 10 nM STR118, or 5 nM MAX; 0-625 nM competitor. As for the experimental part:
as §1

Turning to “Ac-LRLKINSRERKRMHDLNIAMDK(ButMal)LREVMP-NH2 + Ac-SKIATLCLARNYILMLTNSL-NH2 (chain 1 XRLKINSRERKRMHDLNIAMDXLREVMX; chain 2 XKIATLCLARNYILMLTNSX; not fully specified; ButMal ligation; N-acetyl; C-terminal amides; (1)..(1) Xaa is acetyl-L; (22)..(22) Xaa is K(ButMal) (butyrlmaleimide-lysine); (28)..(28) Xaa is P-NH2; (1)..(1) Xaa is acetyl-S; (20)..(20) Xaa is L-NH2) [STR69]”, in data set [1], the DNA motif specificity entry was “show specificity for the OLIG2- and TFAP4-preferred motifs (target sequences in E3 and E2, respectively)”; the “binding to the E-box motif” value is “minimal binding”.

Consider “Ac-RREIANSNERRRMQSINAGFQK(GlyMal)LKTLIP-NH2 + Ac-SKAAILCQTAEYIFRLRRKIHTLE-NH2 (chain 1 XREIANSNERRRMQSINAGFQXLKTLIX; chain 2 XKAAILCQTAEYIFRLRRKIHTLX; GlyMal ligation; N-acetyl; C-terminal amides; (1)..(1) Xaa is acetyl-R; (22)..(22) Xaa is K(GlyMal) (glycylmaleimide-lysine); (28)..(28) Xaa is P-NH2; (1)..(1) Xaa is acetyl-S; (24)..(24) Xaa is E-NH2) [STR640]”, for which, in data set [1], the DNA motif specificity result is “show specificity for the OLIG2- and TFAP4-preferred motifs (target sequences in E3 and E2, respectively)”; the “binding to the E-box motif” value is reported as “minimal binding”.

As to “I: Ac-KRAHHNALERKRRDHIKDSFHKLRDSVP-NH2 / II: Ac-SRAQILCKATEYIQY[Nle]RRKN-NH2 (linker I:22-II:7 via X1) [B-Z]”, the “EMSA Fraction bound (sDBD = 500 nM)” value in the data set on E-box DNA was found to be 100%. For the same substance, at Trypsin (LC-MS), the “trypsin proteolysis (in words)” value is reported as “rapidly proteolyzed at several positions”.

“I: Ac-PRFQSA[S5]DKR[S5]HHNALERKRRDHIKDSFHKLRDSVP-NH2 / II: Ac-SRAQILCKATEYIQRLR[S5]KIR[S5]LE-NH2 (staple I:7-I:11, II:18-II:22; linker I:30-II:7 via X1) [B11-Z80]”: in data set [2], the solubility was over 75 µM.

For “I: Ac-PRFQSA[S5]DKR[S5]HHNALERKRRDHIKDSFHKLRDSVP-NH2 / II: Ac-SRAQILCKATEYIQYLR[S5]KIH[S5]LE-NH2 (staple I:7-I:11, II:18-II:22; linker I:30-II:7 via X1) [STR118, Ac-PRFQSA(S5)DKR(S5)HHNALERKRRDHIKDSFHK(GlyMal)LRDSVP-NH2 + Ac-SRAQILCKATEYIQYLR(S5)KIH(S5)LE-NH2]”, in data set [3], the “thermal stability by temperature-dependent CD” value is “highly thermally stable, with retention of helicity even at 85 °C”. For the same substance, in the data set with E-box probe, the “stability in conditioned media (in words)” value is listed as “increased stability in conditioned media”.

For “I: Ac-PRFQSA[S5]DKR[S5]HHNALERKRRDHIKDSFHKLRDSVP-NH2 / II: Ac-SR[Aib]QILCQATEYIQSLRR[S5]IHT[S5]E-NH2 (staple I:7-I:11, II:19-II:23; linker I:30-II:7 via X1) [B11-Z70]”, the solubility in data set [2] is over 75 µM.

Regarding “I: Ac-PRFQSA[S5]DKR[S5]HHNALERKRRDHIKDSFHKLRDSVP-NH2 / II: Ac-SR[Aib]QILCQATEYIQ[S5][Nle]RR[S5]LHTHE-NH2 (staple I:7-I:11, II:15-II:19; linker I:30-II:7 via X1) [STR116, Ac-PRFQSA(S5)DKR(S5)HHNALERKRRDHIKDSFHK(GlyMal)LRDSVP-NH2 + Ac-SR(Aib)QILCQATEYIQ(S5)(Nle)RR(S5)LHTHE-NH2]”, in the data set with E-box probe, the “stability in conditioned media (in words)” value is reported as “increased stability in conditioned media”.

On to “MAX: Human MAX (residues 22-102) protein expressed with N-terminal hexahistidine tag, used in homodimeric form”, for which, in data set [4], the “competition by DNA in which the E-box had been replaced entirely” value is reported as “no competition”, the “competition by DNA with mutation of the two central E-box nucleotides (CG to TA)” value was “some competition” and the “competition of E-box probe binding by excess unlabeled E-box oligonucleotide” value is on record as “effectively competed”. Moreover, the “half-life in trypsin stability assay” value with Trypsin (0.5 μg/ml trypsin, 37° C.) was 20 s.
